Consider twelve compounds from the supplement of paper PMC6470124.

Molecules are shown by their SMILES.

The nature of data set [1]: absolute recovery over vacuum-assisted evaporative concentration; higher = better recovery. The settings on record: enrichment method: VEC. Summed up: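 Samples of influent (6 mL), effluent (15 mL) and surface or nanopure water (60 mL) were spiked with standards before or after concentration, or left unspiked, at 200 ng/L (nanopure/surface) or 1000 ng/L (wastewater), adjusted by class and compound. Concentration was by evaporation at 55 °C and 20 mbar to about 0.3 mL, followed by adjustment to 0.4 mL and centrifugation. Internal standards were then added for LC-HRMS/MS analysis. Absolute recovery was (response ratio pre − unspiked)/(post − unspiked) × 100, using averages of ≥ 2 replicates.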

Data set [2] is described as follows: absolute recovery over mixed-bed multilayer solid-phase extraction; higher = better recovery. The settings on record: enrichment method: SPE. Summed up: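 Absolute recovery was calculated by comparing background-corrected response ratios of samples spiked before extraction with those spiked after it, averaged over at least two replicates. Wastewater (100–250 mL, adjusted to pH 6.5 and glass-fibre filtered) or 1000 mL of unfiltered nanopure water was passed through a three-layer mixed-bed cartridge and eluted with basic and then acidic ethyl acetate/methanol. Standards were added before extraction, after extraction, or not at all, at 200 ng/L in water or 1000 ng/L in wastewater, with exceptions for some classes. Internal standards were added afterwards, and samples were analysed by liquid chromatography with high-resolution tandem mass spectrometry in both ionisation modes.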

A short description of data set [3]: LC retention time (Atlantis T3, 5-95% MeOH gradient, 0.1% formic acid); higher = more retained / less polar. Summed up:
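Retention times were recorded for reference standards on a polar reversed-phase C18 column. The standards were of purity ≥ 95%, and the Atlantis T3 column (3 × 150 mm, 3 μm) was run at 0.3 mL/min with a gradient from 5 to 95% methanol over 17.5 min, both water and methanol containing 0.1% formic acid. Detection used high-resolution tandem mass spectrometry on a QExactive Plus, with positive and negative electrospray in separate runs, and peaks were integrated in TraceFinder (5 ppm tolerance, at least three points per peak) before being checked by hand.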

Turning to `CN1COCN(Cc2cnc(Cl)s2)C1=N[N+](=O)[O-]` [Thiamethoxam], the absolute recovery came to 100% in data set [1] (wastewater effluent); 105% in data set [1] (wastewater influent); 98.4% in data set [2] (nanopure water); 93.9% in data set [2] (surface water); 96.3% in data set [2] (wastewater effluent); 94.2% in data set [2] (wastewater influent). This compound also yielded an LC retention time in data set [3] of 12.2 min.

In the case of `CC(=O)Nc1ccc(S(=O)(=O)[N-]c2ncccn2)cc1` [N4-Acetyl-Sulfadiazin], the absolute recovery in data set [1] (wastewater effluent) was 113%; in data set [1] (wastewater influent), 99.5%; in data set [2] (nanopure water), 98.6%; in data set [2] (surface water) it was 93.8%; in data set [2] (wastewater effluent), 89.2%; in data set [2] (wastewater influent), 92.8%. In data set [3], the LC retention time was determined as 12 min.

In the case of `CN1C(=O)CN=C(c2ccccc2)c2cc(Cl)ccc21` [Diazepam], the absolute recovery in data set [1] (wastewater effluent) is 105%; in data set [1] (wastewater influent) it was 99.2%; in data set [2] (nanopure water), 97.6%; in data set [2] (surface water), 94.9%; in data set [2] (wastewater effluent), 93.6%; in data set [2] (wastewater influent), 95.7%. The compound also had an LC retention time in data set [3] of 19.5 min.

For the compound `CCNc1nc(NCC)nc(OC)n1` [Simeton], the absolute recovery in data set [1] (wastewater effluent) was determined as 101%; in data set [1] (wastewater influent) it was 102%; in data set [2] (nanopure water), 77.1%; in data set [2] (surface water), 86%; in data set [2] (wastewater effluent), 85.7%; in data set [2] (wastewater influent) it was 88.7%. Further, the LC retention time in data set [3] came to 13 min.

On to `CC(CCC(=O)[O-])C1CCC2C3C(O)CC4CC(O)CCC4(C)C3CCC12C` (centres undefined) [Ursodeoxycholic-acid], for which the values for the absolute recovery in data set [1] (wastewater effluent), in data set [2] (nanopure water) and in data set [2] (wastewater effluent) were 97%, 73.8% and 79.2%, respectively. Moreover, in data set [3], the LC retention time was determined as 21.1 min.

As for `COc1c(C)c2c(c(O)c1CC=C(C)CCC(=O)[O-])C(=O)OC2` [Mycophenolic-Acid], the absolute recovery in data set [1] (wastewater effluent) was 103%; in data set [2] (nanopure water), 99.6%; in data set [2] (surface water), 97.1%; in data set [2] (wastewater effluent) it was 100%. In addition, the LC retention time in data set [3] was 18.9 min.

On to `COc1cc(C)c(C(=O)c2c(OC)ccc(Br)c2C)c(OC)c1OC` [Metrafenone], for which the absolute recovery in data set [1] (wastewater effluent) is 84.4%; in data set [1] (wastewater influent), 101%; in data set [2] (nanopure water) it was 103%; in data set [2] (surface water), 92.4%; in data set [2] (wastewater effluent), 85.4%; in data set [2] (wastewater influent), 117%. Also, the LC retention time in data set [3] came out at 21.4 min.

On to `CC12CCC3=C4CCC(=O)C=C4CCC3C1CCC2(O)CC#N` (centres undefined) [Dienogest], for which the absolute recovery in data set [1] (wastewater effluent) came out at 97.4%; in data set [1] (wastewater influent), 92.2%; in data set [2] (nanopure water) it was 97.4%; in data set [2] (surface water), 81.6%; in data set [2] (wastewater effluent) it was 79%; in data set [2] (wastewater influent), 87%. In addition, the LC retention time in data set [3] worked out at 18.1 min.

With `O=C([O-])C=C(F)C(F)(F)C(F)(F)C(F)(F)C(F)(F)C(F)(F)F` [6-2-FTUCA], the absolute recovery in data set [1] (wastewater effluent) came to 143%; in data set [1] (wastewater influent) it was 97.7%; in data set [2] (nanopure water), 69.6%; in data set [2] (surface water), 89.6%; in data set [2] (wastewater effluent), 97.8%; in data set [2] (wastewater influent) it was 77.9%. Also, in data set [3], the LC retention time was 23.2 min.

For the compound `O=C([O-])COCC[NH+]1CCN(C(c2ccccc2)c2ccc(Cl)cc2)CC1` (centres undefined) [Cetirizin], the absolute recovery in data set [1] (wastewater effluent) amounted to 107%; in data set [1] (wastewater influent), 100%; in data set [2] (nanopure water), 97.8%; in data set [2] (surface water), 96.3%; in data set [2] (wastewater effluent), 95.8%; in data set [2] (wastewater influent), 92.2%. Besides, the LC retention time in data set [3] amounted to 17.4 min.

Take `CC1COC(Cn2cncn2)(c2ccc(Oc3ccc(Cl)cc3)cc2Cl)O1` (centres undefined) [Difenoconazol]: the absolute recovery in data set [1] (wastewater effluent) came to 100%; in data set [1] (wastewater influent), 126%; in data set [2] (nanopure water), 90.2%; in data set [2] (surface water), 100%; in data set [2] (wastewater effluent) it was 102%; in data set [2] (wastewater influent), 70.9%. In data set [3], this compound registered an LC retention time of 21.4 min.

Consider `Cc1cc(C)nc([N-]S(=O)(=O)c2ccc(N)cc2)n1` [Sulfamethazin], for which the absolute recovery in data set [1] (wastewater effluent) amounted to 103%; in data set [1] (wastewater influent) it was 96.1%; in data set [2] (nanopure water), 95.2%; in data set [2] (surface water), 91.3%; in data set [2] (wastewater effluent), 86.2%; in data set [2] (wastewater influent) it was 89.8%. The compound further yielded an LC retention time in data set [3] of 12.1 min.
